# Assays:
# Format in all cases: in vivo
# Rhyncosporium secalis = experiment: Barley Scald (RHYNSE) disease control; settings: 1 Day Protectant; for pest or weed control at 100 ppm: Hordeum vulgare, 24 h, read-out: Disease Control RHYNSE 1 DP
# Method: Technical grades of materials were dissolved in acetone, which were then mixed with nine volumes of water containing 110 ppm Triton X-100. The fungicide solutions were applied onto wheat seedlings using an automated booth sprayer to run-off. All sprayed plants were allowed to air dry prior to further handling. All fungicides were evaluated using the aforementioned method for their activity vs. all target diseases. Wheat leaf blotch and brown rust activity were also evaluated using track spray applications, in which case the fungicides were formulated as EC formulations, containing 0.1% Trycol 5941 in the spray solutions. Wheat plants (variety Yuma) were grown from seed in a greenhouse in 50% mineral soil/50% soil-less Metro mix until the first leaf was fully emerged, with 7-10 seedlings per pot. These plants were inoculated with an aqueous spore suspension of Septoria tritici either prior to or after fungicide treatments. After inoculation the plants were kept in 100% relative humidity (one day in a dark dew chamber followed by two to three days in a lighted dew chamber at 20° C.) to permit spores to germinate and infect the leaf. The plants were then transferred to a greenhouse set at 20° C. for disease to develop. When disease symptoms were fully expressed on the 1st leaves of untreated plants, infection levels were assessed on a scale of 0 to 100 percent disease severity. Percent disease control was calculated using the ratio of disease severity on treated plants relative to untreated plants. Barley seedlings (variety Harrington) were propagated in soil-less Metro mix, with each pot having 8 to 12 plants, and used in the test when first leaf was fully emerged. Test plants were inoculated by an aqueous spore suspension of Rhyncosporium secalis 24 hr after fungicide treatments. After inoculation the plants were kept in a dew room at 20° C. with 100% relative humidity for 48 hr. The plants were then transferred to a greenhouse set at 20° C. for disease to develop. Fungicide formulation, application and disease assessment on the sprayed leaves followed the procedures as described in the Example A.
# [1] = tested on: Magnaporthe grisea; Anamorph: Pyricularia oryzae; experiment: whole plant or invertebrate; settings: for pest or weed control at 100 ppm: Pyricularia oryzae, topical, 24 h, read-out: Disease Control PYRIOR 1 DP
# Alternaria solani = experiment: Tomato Early Blight (ALTESO) disease control; settings: 1 Day Protectant; for pest or weed control at 100 ppm: Alternaria solani, topical, 24 h, read-out: Disease Control ALTESO 1 DP
# Method: Technical grades of materials were dissolved in acetone, which were then mixed with nine volumes of water containing 110 ppm Triton X-100. The fungicide solutions were applied onto wheat seedlings using an automated booth sprayer to run-off. All sprayed plants were allowed to air dry prior to further handling. All fungicides were evaluated using the aforementioned method for their activity vs. all target diseases. Wheat leaf blotch and brown rust activity were also evaluated using track spray applications, in which case the fungicides were formulated as EC formulations, containing 0.1% Trycol 5941 in the spray solutions. Wheat plants (variety Yuma) were grown from seed in a greenhouse in 50% mineral soil/50% soil-less Metro mix until the first leaf was fully emerged, with 7-10 seedlings per pot. These plants were inoculated with an aqueous spore suspension of Septoria tritici either prior to or after fungicide treatments. After inoculation the plants were kept in 100% relative humidity (one day in a dark dew chamber followed by two to three days in a lighted dew chamber at 20° C.) to permit spores to germinate and infect the leaf. The plants were then transferred to a greenhouse set at 20° C. for disease to develop. When disease symptoms were fully expressed on the 1st leaves of untreated plants, infection levels were assessed on a scale of 0 to 100 percent disease severity. Percent disease control was calculated using the ratio of disease severity on treated plants relative to untreated plants. Tomato plants (variety Outdoor girl) were propagated in soil-less Metro mix, with each pot having one plant, and used when 12 to 14 days old. Test plants were inoculated with an aqueous spore suspension of Alternaria solani 24 hr after fungicide treatments. After inoculation the plants were kept in 100% relative humidity (one day in a dark dew chamber followed by two to three days in a lighted dew chamber at 20° C.) to permit spores to germinate and infect the leaf. The plants were then transferred to a growth room at 22° C. for disease to develop. Fungicide formulation, application and disease assessment on the sprayed leaves followed the procedures as described in the Example A.
# Erysiphe cichoracearum = experiment: Powdery Mildew of Cucumber (ERYSCI) disease control; settings: 1 Day Protectant; for pest or weed control at 100 ppm: Golovinomyces cichoracearum, topical, 24 h, read-out: Disease Control ERYSCI 1 DP
# Method: Technical grades of materials were dissolved in acetone, which were then mixed with nine volumes of water containing 110 ppm Triton X-100. The fungicide solutions were applied onto wheat seedlings using an automated booth sprayer to run-off. All sprayed plants were allowed to air dry prior to further handling. All fungicides were evaluated using the aforementioned method for their activity vs. all target diseases. Wheat leaf blotch and brown rust activity were also evaluated using track spray applications, in which case the fungicides were formulated as EC formulations, containing 0.1% Trycol 5941 in the spray solutions. Wheat plants (variety Yuma) were grown from seed in a greenhouse in 50% mineral soil/50% soil-less Metro mix until the first leaf was fully emerged, with 7-10 seedlings per pot. These plants were inoculated with an aqueous spore suspension of Septoria tritici either prior to or after fungicide treatments. After inoculation the plants were kept in 100% relative humidity (one day in a dark dew chamber followed by two to three days in a lighted dew chamber at 20° C.) to permit spores to germinate and infect the leaf. The plants were then transferred to a greenhouse set at 20° C. for disease to develop. When disease symptoms were fully expressed on the 1st leaves of untreated plants, infection levels were assessed on a scale of 0 to 100 percent disease severity. Percent disease control was calculated using the ratio of disease severity on treated plants relative to untreated plants. Cucumber seedlings (variety Bush Pickle) were grown in soil-less Metro mix, with one plant per pot, and used in the test when 12 to 14 days old. Plants were inoculated with a spore suspension 24 hr following fungicide treatments. After inoculation the plants remained in the greenhouse set at 20° C. until disease was fully expressed. Fungicide formulation, application and disease assessment on the sprayed leaves followed the procedures as described in the Example A.
SMILES,pest or weed control at 100 ppm (Rhyncosporium secalis) [%],pest or weed control at 100 ppm [1] [%],pest or weed control at 100 ppm (Alternaria solani) [%],pest or weed control at 100 ppm (Erysiphe cichoracearum) [%],Disease Control RHYNSE 1 DP (Rhyncosporium secalis; 100 ppm),"Disease Control PYRIOR 1 DP ([1]; 100 ppm, 1 Day Protectant, Rice Blast)",Disease Control ALTESO 1 DP (Alternaria solani; 100 ppm),Disease Control ERYSCI 1 DP (Erysiphe cichoracearum; 100 ppm)
CCCO[C@@H]1[C@@H](CCC(C)C)CCC[C@H](NC(=O)c2nccc(OC)c2OC(C)=O)C(=O)O[C@H]1C [Compound F64],80 to 100,80 to 100,80 to 100,80 to 100,,,,
COc1ccnc(C(=O)N[C@H]2CCC[C@H](Cc3ccc(F)cc3)[C@@H](OCC3CC3)[C@H](C)OC2=O)c1OC(C)=O [Compound F67],80 to 100,80 to 100,80 to 100,0 to 80,,,,
COc1ccnc(C(=O)N[C@H]2CCC[C@H](Cc3ccccc3)[C@@H](OCC(C)C)[C@H](C)OC2=O)c1OC(C)=O [Compound F70],80 to 100,80 to 100,0 to 80,80 to 100,,,,
COCC[C@H]1CCC[C@H](NC(=O)c2nccc(OC)c2OC(C)=O)C(=O)O[C@@H](C)[C@@H]1Oc1ccccc1 [Compound F78],80 to 100,80 to 100,0 to 80,0 to 80,,,,
COc1ccnc(C(=O)N[C@H]2CCC[C@H](CCBr)[C@@H](Oc3ccccc3)[C@H](C)OC2=O)c1OC(C)=O [Compound F80],,80 to 100,0 to 80,,,,,
CC[C@H]1CCC[C@H](NC(=O)c2nccc(OC)c2OC(C)=O)C(=O)O[C@@H](C)[C@@H]1Oc1ccccc1 [Compound F81],80 to 100,80 to 100,0 to 80,0 to 80,,,,
COc1ccnc(C(=O)N[C@H]2CCC[C@H](CC(F)F)[C@@H](Oc3ccccc3)[C@H](C)OC2=O)c1OC(C)=O [Compound F82],0 to 80,80 to 100,,,,,,
C=C[C@H]1CCC[C@H](NC(=O)c2nccc(OC)c2OC(C)=O)C(=O)O[C@@H](C)[C@@H]1Oc1ccccc1 [Compound F86],80 to 100,80 to 100,0 to 80,,,,,
CCO[C@@H]1[C@@H](Cc2ccccc2)CCC[C@H](NC(=O)c2nccc(OC)c2OC(C)=O)C(=O)O[C@H]1C [Compound F87],80 to 100,80 to 100,80 to 100,0 to 80,,,,
CCCO[C@@H]1[C@@H](Cc2ccccc2)CCC[C@H](NC(=O)c2nccc(OC)c2OC(C)=O)C(=O)O[C@H]1C [Compound F88],80 to 100,80 to 100,80 to 100,80 to 100,,,,
CCCO[C@@H]1[C@@H](CCC(C)C)CCC[C@H](NC(=O)c2nccc(OC)c2OCOC(C)=O)C(=O)O[C@H]1C [Compound F92],80 to 100,80 to 100,80 to 100,80 to 100,,,,
COc1ccnc(C(=O)N[C@H]2CCC[C@H](Cc3ccc(F)cc3)[C@@H](OCC3CC3)[C@H](C)OC2=O)c1OCOC(C)=O [Compound F96],80 to 100,80 to 100,80 to 100,80 to 100,,,,
COc1ccnc(C(=O)N[C@H]2CCC[C@H](Cc3ccc(F)cc3)[C@@H](OCC3CC3)[C@H](C)OC2=O)c1OCOC(C)=O [Compound F98],,,,,A (80-100),A (80-100),A (80-100),A (80-100)
CCCO[C@@H]1[C@@H](Cc2ccc(F)cc2)CCC[C@H](NC(=O)c2nccc(OC)c2OCOC(C)=O)C(=O)O[C@H]1C [Compound F101],80 to 100,80 to 100,80 to 100,80 to 100,,,,
COc1ccnc(C(=O)N[C@H]2CCC[C@H](Cc3ccccc3)[C@@H](Oc3ccccc3)[C@H](C)OC2=O)c1OCOC(C)=O [Compound F108],80 to 100,80 to 100,,,,,,
COc1ccnc(C(=O)N[C@H]2CCC[C@H](Cc3ccccc3)[C@@H](OC3CCCC3)[C@H](C)OC2=O)c1OCOC(C)=O [Compound F110],80 to 100,80 to 100,,,,,,
COc1ccc(C[C@H]2CCC[C@H](NC(=O)c3nccc(OC)c3OCOC(C)=O)C(=O)O[C@@H](C)[C@@H]2Oc2ccccc2)cc1 [Compound F114],80 to 100,80 to 100,,,,,,
COc1ccnc(C(=O)N[C@H]2CCC[C@H](CC(F)F)[C@@H](Oc3ccccc3)[C@H](C)OC2=O)c1OCOC(C)=O [Compound F138],0 to 80,80 to 100,,,,,,
COc1ccnc(C(=O)N[C@H]2CCC[C@H](Cc3ccc(F)cc3F)[C@@H](OC(=O)c3ccco3)[C@H](C)OC2=O)c1OCOC(C)=O [Compound F144],80 to 100,,80 to 100,0 to 80,,,,
COc1ccnc(C(=O)N[C@H]2CCC[C@H](Cc3ccc(F)cc3F)[C@@H](OCC(C)C)[C@H](C)OC2=O)c1OCOC(C)=O [Compound F145],80 to 100,,80 to 100,80 to 100,,,,
C=C[C@H]1CCC[C@H](NC(=O)c2nccc(OC)c2OCOC(C)=O)C(=O)O[C@@H](C)[C@@H]1Oc1ccccc1 [Compound F146],80 to 100,80 to 100,80 to 100,,,,,
COc1ccnc(C(=O)N[C@H]2CCC[C@H](Cc3ccccc3)[C@@H](OCC(C)C)[C@H](C)OC2=O)c1OCOC(=O)C(C)C [Compound F151],,80 to 100,80 to 100,80 to 100,,,,
COc1ccnc(C(=O)N[C@H]2CCC[C@H](Cc3ccc(F)cc3F)[C@@H](OC(=O)c3ccco3)[C@H](C)OC2=O)c1OCOC(=O)C(C)C [Compound F157],80 to 100,,80 to 100,,,,,
CCOCC(=O)OCOc1c(OC)ccnc1C(=O)N[C@H]1CCC[C@H](Cc2ccc(F)cc2F)[C@@H](OC(=O)c2ccco2)[C@H](C)OC1=O [Compound F193],80 to 100,80 to 100,80 to 100,,,,,

# Source: US9265253B2, “Use of macrocyclic picolinamides as fungicides” (DOW AGROSCIENCES LLC, priority 2013, dated 2016)
